Values joined by “and” are separate entries in the source; they are usually repeats but may differ in a detail not shown here. Identical values can stand only once. Like-named read-outs stand apart in the source and are kept apart here.

For orientation: pIC50 means the negative decadic logarithm of the IC50, by convention in mol/L. Low values mean a high IC50, high ones a low IC50. As a reminder, the Ki is the equilibrium dissociation constant of an inhibitor or competing ligand from its target. As a reminder, the IC50 is the concentration needed to halve the response being measured.

In one assay the target is T1, adenine binding GPCR (Rattus norvegicus, UniProt Q7TN49).
T1 construct: The full length reading frame was inserted into the mammalian expression vector pcDNA3; expressed in transfected cells; host or cells: HEK293 cells stably transfected with pLEC/Gqi or pLEC/Gqo
T1 sequence (Q7TN49 1-304): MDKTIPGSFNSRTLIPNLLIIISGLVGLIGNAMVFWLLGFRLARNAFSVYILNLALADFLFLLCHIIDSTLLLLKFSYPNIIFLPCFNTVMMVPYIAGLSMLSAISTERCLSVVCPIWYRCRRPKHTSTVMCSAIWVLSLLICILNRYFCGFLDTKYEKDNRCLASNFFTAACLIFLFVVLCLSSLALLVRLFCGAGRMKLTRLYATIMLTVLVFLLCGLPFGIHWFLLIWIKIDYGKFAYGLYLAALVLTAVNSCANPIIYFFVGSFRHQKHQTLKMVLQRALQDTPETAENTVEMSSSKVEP
Kind of assay: FLIPR Ca2+ transient assay, antagonism of 30 nM adenine challenge. The class given is cell-based. The conditions noted are these: 15 minutes incubation with compound (30 μM to 30 pM), then challenge with 30 nM adenine. From the text: The full length reading frame was inserted into the mammalian expression vector pcDNA3 (Invitrogen, Carlsbad, Calif., U.S.A.) and the resulting expression construct was transiently transfected with the FuGENE 6 reagent (Roche Molecular Biochemicals, Mannheim, Germany) into HEK293 cells stably transfected (E. Bender, unpublished) with pLEC/Gqi or pLEC/Gqo (Molecular Devices, Sunnyvale, Calif., U.S.A.). The cells were loaded with Fluo-4 (Molecular Probes, Eugene, Oreg., U.S.A.) according to the recommendations of the supplier.
After a 15 minutes incubation at room temperature, the same cells were challenged with 30 nM adenine, to detect antagonistic properties of molecules added in the first round of superfusion.

The next assay has as its system wild type CHO cells. Kind of assay: [3H]adenine competition binding on wild type CHO membranes. Conditions: 15 nM [3H]adenine. The protocol: The membranes were prepared as total particulate fractions. […] The culturing medium was removed and the cells were washed twice with ice cold phosphate buffered saline (PBS without Ca^2+ and Mg^2+), scraped from the plates in 50 mM Tris-HCl buffer, pH 7.4, and collected by centrifugation (10 minutes at 16,000 RPM at 4° C.). The cell pellet was re-suspended in hypotonic 5 mM Tris-HCl buffer, pH 7.4, and homogenized with an Ultra Turrax homogenizer (Janker Kunkel, Germany). The homogenate was centrifuged at 18,000 RPM for 20 minutes at 4° C. The final pellet was re-suspended in 50 mM Tris-HCl buffer, pH 7.4 and stored in aliquots at −70° C. A protein determination was performed using the Bradford protein assay (Biorad, Germany) using bovine serum albumin (BSA) as standard.
(§1) Membranes were thawed on ice and diluted in 50 mM HEPES buffer, pH 7.4 supplemented with 10 mM MgCl2 and 1 mM EGTA. […] Both assays were carried out in a final volume of 500 μl, using 18 μg of membrane protein for the transfected CHO cells and 30 μg of membrane protein for the wild type CHO cells for the saturation binding. For competition binding experiments, 15 and 50 μg of membrane protein was used for the transfected and wild type cells, respectively. The reaction was terminated by rapid filtration through Whatman GF/B filters using a Brandel multi-channel cell harvester (96 wells). The filters were washed three times with 3 ml ice cold 50 mM HEPES buffer, pH 7.4, transferred to liquid scintillation vials and 3 ml of scintillation fluid (Ultima Gold MV, Packard, Netherlands) was added. Samples were counted in a β-scintillation counter after at least 6 hours to permit the glass fiber filters to become uniformly translucent.

The next assay deals with T2, rat adenine binding GPCR (Rattus norvegicus, UniProt Q7TN49).
T2 sequence (Q7TN49 1-304): T1 sequence (Q7TN49 1-304)
Kind of assay: FLIPR Ca2+ transient assay, agonism, HEK293/Gq chimera cells transiently transfected with rat adenine binding GPCR/pcDNA3. The assay is classed as cell-based. Set-up: The full length reading frame was inserted into the mammalian expression vector pcDNA3; expressed in transfected cells; host or cells: HEK293 cells stably transfected with pLEC/Gqi or pLEC/Gqo. The conditions noted are these: for agonistic effects on Ca2+ transients: concentrations ranging from 30 μM to 30 pM; for calcium transients elicited: HEK293/Gaqo cells, 3.3 μM. The source says: This assay is based around an instrument called a FLuorescence Imaging Plate Reader ((FLIPR®), Molecular Devices Corporation). In its most common configuration, it excites and measures fluorescence emitted by fluorescein-based dyes. It uses an argon-ion laser to produce high power excitation at 488 nm of a fluorophore, a system of optics to rapidly scan the over the bottom of a 96-/384-well plate and a sensitive, cooled CCD camera to capture the emitted fluorescence. It also contains a 96-/384-well pipetting head allowing the instrument to deliver solutions of test agents into the wells of a 96-/384-well plate. The FLIPR assay is designed to measure fluorescence signals from populations of cells before, during and after addition of compounds, in real time, from all 96-/384-wells simultaneously. […] As described below, calcium transients in cells transfected with adenine binding GPCR were measured using the FLIPR assay in order to measure activation of the receptors by various substrates in order to determine the natural ligand of the receptor.
The full length reading frame was inserted into the mammalian expression vector pcDNA3 (Invitrogen, Carlsbad, Calif., U.S.A.) and the resulting expression construct was transiently transfected with the FuGENE 6 reagent (Roche Molecular Biochemicals, Mannheim, Germany) into HEK293 cells stably transfected (E. Bender, unpublished) with pLEC/Gqi or pLEC/Gqo (Molecular Devices, Sunnyvale, Calif., U.S.A.). The cells were loaded with Fluo-4 (Molecular Probes, Eugene, Oreg., U.S.A.) according to the recommendations of the supplier. […]
Using the FLIPR assay as above, calcium transients were measured in both sets of cells with the transients attributable to the novel GPCR measured as the difference between the two transients. Results are illustrated in FIG. 4. […]

Assay [1] concerns the target T3, adenine binding rat receptor (Rattus norvegicus, UniProt Q7TN49).
T3 construct: expressed in transfected cells; host or cells: CHO cells, transient, lipofectamine PLUS
T3 sequence (Q7TN49 1-304): T1 sequence (Q7TN49 1-304)
Kind of assay: [3H]adenine competition binding on CHO membranes transiently transfected. The conditions noted are these: transfected cells, 15 nM [3H]adenine. On the procedure:
The membranes were prepared as total particulate fractions. The cell lines were cultured to […] on 145 mm petri dishes and treated with 5 mM sodium butyrate, 24 hours before collection. The culturing medium was removed and the cells were washed twice with ice cold phosphate buffered saline (PBS without Ca^2+ and Mg^2+), scraped from the plates in 50 mM Tris-HCl buffer, pH 7.4, and collected by centrifugation (10 minutes at 16,000 RPM at 4° C.). The cell pellet was re-suspended in hypotonic 5 mM Tris-HCl buffer, pH 7.4, and homogenized with an Ultra Turrax homogenizer (Janker Kunkel, Germany). The homogenate was centrifuged at 18,000 RPM for 20 minutes at 4° C. The final pellet was re-suspended in 50 mM Tris-HCl buffer, pH 7.4 and stored in aliquots at −70° C. A protein determination was performed using the Bradford protein assay (Biorad, Germany) using bovine serum albumin (BSA) as standard.
as §1, with “A) Methods—[3H]Adenine binding experiments were performed to characterize wild type cell lines before transfection as well as transiently and permanently transfected cell lines. Membranes” for “Membranes”

The target of assay [2] is T3, adenine binding rat receptor. Kind of assay: [35S]GTPγS binding on CHO membranes transiently transfected. The class given is biochemical. Conditions: transiently transfected cells; for % stim.: increase above basal; for EC50: read-out: pEC50 (converted). On the procedure:
a) Methods—Determination of [^35S ]GTPγS binding to the G-proteins was carried out according to a modified procedure of Lazareno (Methods Mol. Biol., 83:107-116, 1997). These experiments were performed for a first functional evaluation of the receptor on the level of a membrane preparation.
The assay mixture contained 10 and 35 μg of membrane protein for the transfected and wild type CHO cells, respectively.
For testing agonistic activity, 175 μl of diluted membranes was pre-incubated in the buffer described above together with 25 μl of buffer and 25 μl of varying concentrations of the compound in a total volume of 225 μl. After a 20 minute pre-incubation period at 30° C., 25 μl of [^35S]GTPγS was added to a final concentration of 0.25 nM and the assay mixtures were further incubated for 20 minutes at 30° C. Bound and free [^35S]GTPγS were separated by rapid filtration over an UniFilter™-96, GF/B™ under reduced pressure using Filtermate 196 filtration (Packard Company (Netherlands). The amount of bound radioactivity on the filter unit was determined after drying of the filters and scintillant addition (Microscint-O; Packard Company) by liquid scintillation counting.
Basal [^35S]GTPγS binding was measured in absence of compounds. Stimulation by agonist was calculated as the percentage increase above basal levels. The sigmoid agonist concentration-response curves were analyzed by non-linear regression using the GraphPad Prism program. The different concentration points were run in duplicates and the reported data were retrieved from independent experiments.

Take `Nc1ncnc2c1ncn2[C@@H]1O[C@H](COP(=O)(O)OP(=O)(O)OP(=O)(O)O)[C@@H](O)[C@H]1O` [ATP]: the antagonistic effect result at adenine binding GPCR was “did not elicit antagonistic effects”. Also, the pIC50 is under 4 in the assay on wild type CHO cells (mean of n experiments); under 4 in the assay with wild type CHO cells (single experiments); 4.07 in assay [1] (mean of n experiments); 4.02 and 4.18 in assay [1] (single experiments). Also, the “agonistic effects on Ca2+ transients” value at rat adenine binding GPCR is “No further agonistic effects”. Besides, the Ki in assay [1] (mean of n experiments) is 52.8 µM; in assay [1] (single experiments) it was 58.5 µM (2×) and 40.7 µM.
Take `O=c1[nH]c(=O)c2[nH]cnc2[nH]1` [xanthine]: the antagonistic effect entry at adenine binding GPCR is given as “did not elicit antagonistic effects”. Further, at rat adenine binding GPCR, the calcium transients elicited result is “could not be elicited” and the “agonistic effects on Ca2+ transients” value is reported as “No further agonistic effects”.
Take `COc1cccc2c1C(=O)c1c(O)c3c(c(O)c1C2=O)C[C@@](O)(C(=O)CO)C[C@@H]3O[C@H]1C[C@H](N)[C@H](O)[C@H](C)O1` [Adrianamycin]: the pIC50 was under 4 with wild type CHO cells (mean of n experiments), under 4 in the assay on wild type CHO cells (single experiments), 4.35 in assay [1] (mean of n experiments) and 4.35 in assay [1] (single experiments). Besides, the Ki in assay [1] (mean of n experiments) came to 27.9 µM; in assay [1] (single experiments), 27.8 µM.
In the case of `COc1cccc2c1C(=O)c1c(O)c3c(c(O)c1C2=O)C[C@@](O)(C(C)=O)C[C@@H]3O[C@H]1C[C@H](N)[C@H](O)[C@H](C)O1` [Daunomycin], the pIC50 in the assay with wild type CHO cells (mean of n experiments) and in the assay with wild type CHO cells (single experiments) was under 4 each time. In addition, the IC50 in assay [1] (mean of n experiments) and in assay [1] (single experiments) was 50.1 µM in each case. Besides, the Ki in assay [1] (mean of n experiments) was 31.3 µM; in assay [1] (single experiments), 31 µM.
Regarding `O=c1ccn([C@@H]2O[C@H](COP(=O)(O)OP(=O)(O)O)[C@@H](O)[C@H]2O)c(=O)[nH]1` [UDP], the antagonistic effect result on adenine binding GPCR is listed as “did not elicit antagonistic effects”. Moreover, at rat adenine binding GPCR, the calcium transients elicited entry is “could not be elicited” and the “agonistic effects on Ca2+ transients” value is given as “No further agonistic effects”.
Take `Cn1c(=O)c2[nH]cnc2n(C)c1=O` [theophylline]: the antagonistic effect entry at adenine binding GPCR is on record as “did not elicit antagonistic effects”. In addition, the “agonistic effects on Ca2+ transients” value at rat adenine binding GPCR was “No further agonistic effects”.
As to `c1ccc(CNc2ncnc3nc[nH]c23)cc1` [6-Benzylaminopurine], the pIC50 in the assay on wild type CHO cells (mean of n experiments) and in the assay on wild type CHO cells (single experiments) was under 4 each time. Moreover, the “stimulation normalized to maximum adenine response” value in assay [2] (adenine stimulation of same experiment = 100%) is “(11% ref)”. The “% stim.” value in assay [2] (mean of n experiments) and in assay [2] (single experiments) was 12% each time. Further, the EC50 in assay [2] (mean of n experiments) and in assay [2] (single experiments) was over 100 µM in each case. Further, the results for the IC50 in assay [1] (mean of n experiments) and in assay [1] (single experiments) were 93.3 µM and 87.1 µM, respectively. In addition, the Ki is 58.3 µM in assay [1] (mean of n experiments); 61.4 µM and 54.1 µM in assay [1] (single experiments).
In the case of `Cc1ccc(C(=O)Nc2ccc(S(=O)(=O)O)c3cc(S(=O)(=O)O)cc(S(=O)(=O)O)c23)cc1NC(=O)c1cccc(NC(=O)Nc2cccc(C(=O)Nc3cc(C(=O)Nc4ccc(S(=O)(=O)O)c5cc(S(=O)(=O)O)cc(S(=O)(=O)O)c45)ccc3C)c2)c1` [suramin], the antagonistic effect entry at adenine binding GPCR is listed as “did not elicit antagonistic effects”. The “agonistic effects on Ca2+ transients” value on rat adenine binding GPCR is “No further agonistic effects”.
For reactive blue, in that order: “did not elicit antagonistic effects” and “No further agonistic effects”.
For `O=c1ccn([C@@H]2O[C@H](COP(=O)(O)OP(=O)(O)OP(=O)(O)O)[C@@H](O)[C@H]2O)c(=O)[nH]1` [UTP], in that order: “did not elicit antagonistic effects” and “No further agonistic effects”.

These data come from patent publication US20030157516A1, “G protein coupled receptor” (priority 2000, published 2003).
